Patent publication US20050119310A1, “Use of n-substituted-1,5-dideoxy-1,5-imino-d-glucitol compounds for treating hepatitis virus infections” (priority 2000, published 2005)

Legend:
[1] = tested on: woodchuck hepatitis virus (WHV); assay: Woodchuck model, N-nonyl-DNJ monotherapy, total HBV DNA and immune precipitated HBV DNA (IPDNA); format: in vivo
Description: Therefore, five groups of four animals each (all groups had both sexes, all but the control had two of each sex) were assigned to 0, 12.5, 25, 50, and 100 mg/kg/day with BID oral dosing. These were lab-reared wild animals. All animals were infected with woodchuck hepatitis virus (WHV) as neonates, and had been tested positive on serological tests for WHV surface antigen. Blood samples were drawn one week prior to dosing (−1 week), immediately before dosing (0 weeks), weekly during dosing (1, 2, 3, and 4 weeks), and after the end of dosing (5, 6, 8, and 10 weeks).
There are two measures of drug efficacy: reduction in total HBV DNA (measured by quantitative PCR), and reduction in HBV DNA from capsids with intact surface glycoproteins, which is the active form of the virus (measured by an ELISA-like immune precipitation assay followed by quantitative PCR).
Before models are fitted to the data, a log transform was applied because: 1) the variation in IPDNA increases with increasing IPDNA values; the log transformation gives values with a nearly constant variation, and 2) it is expected that drug effects will appear as a constant multiplier of the IPDNA level. Because there are zero values of IPDNA, a small value (about ½ of the smallest non-zero value) was added to all values before the log transform.
Two approaches were used to model the changes in slope to week with dose of N-nonyl-DNJ: a linear modeling approach and a nonlinear model. Both approaches assume that the (linear) rate of change of the Log(IPDNA) measure over the dosing period is the “right” measure to reflect the effect of the drug on the virus. Both approaches are fit in stages, and the first stage is common to both approaches. First, a simple straight line regression model is fit using weeks 0-4 to predict log(IPDNA+10) separately for each animal by run combination. In the second stage, the response variable is the slope fitted in the first stage.
For the linear approach, a model is fit with slope to week as the response where run is considered a block, dose has a significant effect (almost all of this effect is due to a slope to dose), and the relevant error for testing the effect of dose is the variation among animals treated alike (after the adjustment for the runs as blocks). This is similar to using the calibration data within each run to first adjust each run's data to a common virus DNA concentration; the difference is that here the data from the woodchucks are used for the run adjustment rather than only the calibration data.
For the nonlinear approach, a four parameter logistic model is fit with the slope to week as the response and the dose as the predictor. Again, run is considered a block, but because no run has all weeks, it is not possible to fully reflect the blocking in the nonlinear approach. […] The average maximum slope observed was 2.71 additional Log(IPDNA μg/mL)/week, or an increase of about 150%/week, the average minimum slope observed with N-nonyl-DNJ is 0.31 fewer Log(IPDNA μg/mL)/week), or about a decrease of about 25%/week. The slopes, the fitted model, the parameter estimates from the model, and the approximate standard errors for these parameters are all shown in FIG. 3. […] Whether in woodchucks or humans, the effective dose of both the N-alkyl-DNJ and nucleoside or nucleotide antiviral agent administered in combination therewith can be administered in two equal daily subdoses (i.e., B.I.D.).

[2] = tested on: hepatitis B virus in HepG 2.2.15 (2.2.15) cells; assay: IC-90 values used for the combostat method (earlier determinations); format: cell-based; conditions: HepG2.2.15, T. Block and G. Jacob, unpublished observation
Description: The anti-hepatitis B virus effect of (−)-2′-deoxy-3′-thiocytidine-5′-triphosphate (3TC) alone and in combination with N-nonyl-DNJ was determined according to Korba ((1996) Antiviral Research 29(1):49-51), using the “combostat” strategy (Comstat Program, Combostat Corp., Duluth, Minn.). The combostat method involves serially diluting the IC-90 of each compound. The IC-90 of N-nonyl-DNJ has been determined to be between 4 and 10 μg/ml (T. Block and G. Jacob, unpublished observation). The accepted IC-90 for 3TC in HepG 2.2.15 (2.2.15) cells is 300 nM to 500 nM (Doong et al. (1991) Proc. Natl. Acad. Sci. USA 88:8495-8499).

[3] = tested on: Hepatitis B Virus; assay: Hepatitis B virus secretion from chronically HBV secreting HepG2.2.15 cells (preS1 immunoprecipitation / PCR); format: cell-based; conditions: 3 days of incubation, control = 100%
Description: The anti-hepatitis B virus activity and effect on cell viability of a number of different N-substituted-1,5-dideoxy-1,5-imino-D-glucitol compounds were assessed using an in vitro assay employing chronically hepatitis B virus secreting HepG2.2.15 cells. The method employed was essentially that described in Block et al. (1994) Proc. Natl. Acad. Sci. USA 91:2235-2239.

[4] = woodchuck, weeks 0-4, with N-nonyl-DNJ

For `CCCCCCCCCN1C[C@H](O)[C@@H](O)[C@H](O)[C@H]1CO` [Compound 1, N-(n-nonyl)-1,5-dideoxy-1,5-imino-D-glucitol], which “effect on total HBV DNA measurements” value ([1]; woodchuck, 12.5-100 mg/kg/day BID oral, 4 weeks of dosing) is on record?
Its value is “no effect”.

What about the “EC50, four parameter logistic model of slope of Log(IPDNA+10) to week versus dose” value ([1]; woodchuck, oral BID) of the same compound?
Its value is 7.88 mg/kg/BID dose.

And the “increase of IPDNA at average maximum slope” value ([1]; woodchuck, weeks 0-4)?
Its value is “about 150 %/week”.

And the “average maximum slope observed, additional Log(IPDNA)/week” value ([1]; woodchuck, weeks 0-4, upper end of fitted model)?
Its value is 2.71 Log(IPDNA μg/mL)/week.

And the “average minimum slope observed, fewer Log(IPDNA)/week” value [1, 4]?
Its value is 0.31 Log(IPDNA μg/mL)/week.

And the “decrease of IPDNA at average minimum slope” value [1, 4]?
Its value is “about 25 %/week”.

What about the “approximate effective monotherapy dose” value ([1]; woodchucks) of the same compound?
The value was “about 16 mg/kg/day”.

What about the IC90 [2] of the same compound?
Its IC90 is 4 to 10 µg/mL.

For `CCC(CC)CN1C[C@H](O)[C@@H](O)[C@H](O)[C@H]1CO` [Compound 3, N-(2-ethylbutyl)-1,5-dideoxy-1,5-imino-D-glucitol], which “Relative amount of HBV secreted, as a % of control” value (from here on “Relative amount … as a % of control”) ([3]; concentration [200]) is on record?
The value was 45.0 +/− 30 (n = 3) %.

What about the “Relative amount … as a % of control” value ([3]; concentration [1000]) of the same compound?
Its value is 5.0 +/− 20 (n = 3) %.

Which “Relative amount … as a % of control” value ([3]; concentration [200]) does the source give for `CCCCN1C[C@H](O)[C@@H](O)[C@H](O)[C@H]1CO` [NBDNJ, N-(n-butyl-)-1,5-dideoxy-1,5-imino-D-glucitol] here?
Its value is 37.0 +/− 13 (n = 15) %.

And the “Relative amount … as a % of control” value ([3]; concentration [1000])?
The value was 3.2 +/− 5 (n = 15) %.
